Where no end group is shown, it is not given here.
Legend:
[1] = test system: AB-strain zebrafish embryos; experiment: Embryotoxicity in zebrafish; format: in vivo; conditions: embryos at 28 °C for approximately 2–3 days, light microscope; for zebrafish morphology (embryotoxicity): 1 × MIC
Protocol: A sodium dehydroacetate solution of 200 μg/mL served as the positive control, while the negative control group contained only culture medium. The embryos were cultured in a constant temperature incubator at 28 °C for approximately 2–3 days, and their morphology after fertilization was observed using a light microscope.

[2] = test system: Eschericha coli ATCC25922; experiment: Protease stability (MIC after protease treatment); format: cell-based; set-up: MIC value, Control: unit not given beside the values; conditions: triplicate; for MIC value after Papain: peptide incubated with 1 mg/mL papain; for MIC value after Papain / MIC value after Pepsin / MIC value after Protease K / MIC value after Trypsin: enzyme inactivated before MIC; for MIC value after Pepsin: peptide incubated with 1 mg/mL pepsin; for MIC value after Protease K: peptide incubated with 1 mg/mL protease K; for MIC value after Trypsin: peptide incubated with 1 mg/mL trypsin; for MIC value, Control: untreated peptide, Table 3 control
Protocol: (§1) The strains kept at −80 °C were reactivated, plated, and incubated overnight at 37 °C. Single colonies were picked, inoculated into 5 mL of MH medium, and cultured until they reached OD600 = 0.5. The bacterial suspensions were then diluted to 1 × 10^5 CFU/mL, and 50 μL was added to wells 1–11. Then, 50 μL and 100 μL of deionized water were added to wells […], respectively, to provide a positive and a negative control. The concentration of peptide present in the first non-turbid well in which bacterial growth was inhibited was taken as the minimal inhibitory concentration (MIC). This experiment was repeated three times.
(§2) The efficacy of the chemically synthesized and in vivo-expressed LRGG peptide were tested for their efficacy against Eschericha coli ATCC 25922 under various conditions, such as heat and different pH conditions, before determining their MIC in triplicate. In one case, the peptides were placed in ice-cold water at 0 °C and heated to 37 °C and 100 °C for 30 min each, and their efficacy was compared to that of an untreated control group. This process was repeated three times. In another case, the peptides were exposed for one hour to pH values of 4, 6, 8, and 10, and their activity was compared to that of an untreated control group. In another set of experiments, the peptides were mixed and incubated with 1 mg/mL of four different proteases. After inactivation of the enzymes, the peptides were tested for their efficacy against Eschericha coli ATCC 25922. The peptides were also tested after mixing with various salt solutions and concentrations of fetal bovine serum at concentrations ranging from 5% to 50%. In all cases, the MIC were determined in triplicate using untreated antimicrobial peptides as controls.

[3] = test system: Eschericha coli ATCC25922; experiment: Serum stability (MIC at different serum concentrations); format: cell-based; conditions: triplicate; for MIC value in 5% serum: fetal bovine serum 5%; for MIC value in 10% serum: fetal bovine serum 10%; for MIC value in 20% serum: fetal bovine serum 20%; for MIC value in 40% serum: fetal bovine serum 40%; for MIC value in 50% serum: fetal bovine serum 50%; for MIC value, Control: untreated peptide, Table 5 control
Protocol: as §1, §2

[4] = test system: Eschericha coli ATCC25922; experiment: Salt ion stability (MIC in salt solutions); format: cell-based; set-up: unit not given here; conditions: triplicate; for MIC value with MgCl2: 1 mM MgCl2; for MIC value with CaCl2: 2.5 mM CaCl2; for MIC value with KCl: 4.5 mM KCl; for MIC value with NH4Cl: 6 mM NH4Cl; for MIC value with NaCl: 150 mM NaCl; for MIC value, Control: untreated peptide, Table 4 control
Protocol: as §1, §2

[5] = test system: sheep red blood cells; format: cell-based; conditions: red cells of sheep
Protocol: To obtain a suspension containing 2% red blood cells, 15 mL of sheep blood was collected in a tube containing 0.2% sodium heparin anticoagulant and centrifuged at 1000 rpm for 10 min. After discarding the supernatant, the red blood cell pellet was collected, washed twice with sterile phosphate buffered saline (PBS), and resuspended in PBS. […] After the erythrocyte suspension was incubated with the antimicrobial peptide LRGG for one hour at 37 °C, the mixture from each well of the 96-well plate was aspirated and centrifuged at 1000× g for 10 min. The absorbance of the supernatant was then measured at 570 nm, with three repeats and averaging. Finally, the hemolytic index was calculated as follows: Hemolytic index (%) = (O.D. peptide − O.D. PBS)/(O.D. TritonX − 100 − O.D. PBS) × 100%.

[6] = test system: Eschericha coli ATCC25922; experiment: Plasma membrane potential (diSC3-5); format: cell-based; conditions: 1–8 MIC, 0–1500 s, diSC3-5 0.4 μM
Protocol: To determine whether the expressed antimicrobial peptide LRGG can break bacterial cytoplasmic membranes, diSC3-5 was used as a fluorescent dye to monitor changes in membrane potential. A bacterial suspension was prepared and adjusted to an ABS O.D. of 600 = 0.5. Next, the same volume of bacterial suspension and varying concentrations of expressed antimicrobial peptide LRGG (1–8 MIC) were added to black 96-well plates. A control group was established using PBS, and diSC3-5 dye was added to a final concentration of 0.4 μM and incubated at room temperature in the dark for one hour. Changes in […] between 0 and 1500 s were measured using a fluorescence microplate reader at excitation (622 nm) and emission (670 nm) wavelengths.

[7] = test system: Eschericha coli ATCC25922; experiment: Temperature and pH stability (MIC after treatment); format: cell-based; set-up: MIC value, Control (pH 7) / MIC value after 0 °C / MIC value after 37 °C / MIC value after 100 °C / MIC value after pH 4 / MIC value after pH 6 / MIC value after pH 8 / MIC value after pH 10: unit not given beside the values; conditions: for MIC value after pH 4: peptide exposed for one hour to pH 4; for MIC value after pH 4 / MIC value after pH 6 / MIC value after pH 8 / MIC value after pH 10 / MIC value after 37 °C / MIC value after 100 °C / MIC value after 0 °C / MIC value, Control (pH 7): triplicate; for MIC value after pH 6: peptide exposed for one hour to pH 6; for MIC value after pH 8: peptide exposed for one hour to pH 8; for MIC value after pH 10: peptide exposed for one hour to pH 10; for MIC value after 37 °C: peptide heated to 37 °C for 30 min before MIC; for MIC value after 100 °C: peptide heated to 100 °C for 30 min before MIC; for MIC value after 0 °C: peptide in ice-cold water at 0 °C for 30 min before MIC; for MIC value, Control (pH 7): untreated peptide, Table 2 control; for increase of MIC value at 100 °C: versus untreated control
Protocol: as §1
as §2, with “In another case, the peptides were exposed for one hour to pH values of 4, 6, 8, and 10, and their activity was compared to that of an untreated control group.” left out

Molecule	MIC value after Papain [2]	MIC value after Pepsin [2]	MIC value after Protease K [2]	MIC value after Trypsin [2]	MIC value, Control [2]	MIC value in 5% serum [3]	MIC value in 10% serum [3]	MIC value in 20% serum [3]	MIC value in 40% serum [3]	MIC value in 50% serum [3]	MIC value, Control [3]	MIC value with MgCl2 [4]	MIC value with CaCl2 [4]	MIC value with KCl [4]	MIC value with NH4Cl [4]	MIC value with NaCl [4]	MIC value, Control [4]	zebrafish morphology (embryotoxicity) [1]	MIC value after pH 4 [7]	MIC value after pH 6 [7]	also measured
CC(=O)c1c([O-])cc(C)oc1=O.[Na+] [sodium dehydroacetate, reference compound]																					zebrafish morphology (embryotoxicity), positive control ([1]; 200 μg/mL): significant hemorrhage and severe bending of the fish
GLLRLLRRGGRRLLRLL [Expressed LRGG]	>64	>128	>64	>128	4	2	4	32	32	32	2	8	4	8	4	8	4	did not change the morphology of the zebrafish	2	4	hemolytic index [5]: less than 10%; diSC3-5 fluorescence value (cytoplasmic membrane potential) [6]: gradually increased; MIC value after pH 8 [7]: 2; MIC value after pH 10 [7]: 16; MIC value after 37 °C [7]: 4; MIC value after 100 °C [7]: 8; MIC value after 0 °C [7]: 2; MIC value, Control (pH 7) [7]: 2; increase of MIC value at 100 °C [7]: four-fold
H-LLRLLRRGGRRLLRLL-NH2 [Chem. Syn. LRGG]	>64	>128	>64	>128	2	2	2	8	16	16	2	4	4	2	2	8	2	did not change the morphology of the zebrafish	2	2	MIC value after pH 8 [7]: 4; MIC value after pH 10 [7]: 4; MIC value after 37 °C [7]: 2; MIC value after 100 °C [7]: 8; MIC value after 0 °C [7]: 2; MIC value, Control (pH 7) [7]: 2; increase of MIC value at 100 °C [7]: four-fold
